Experimental data as given in patent US20170008888A1 (KYORIN PHARMACEUTICAL CO., LTD., priority 2014, published 2017).

Key:
TAO2 = target: T1, TAO2 (Homo sapiens, UniProt Q9UL54); test: Probe-based (AX9989) kinase profiling in Jurkat lysate: TAO2; format: binding; conditions: read-out: Kinase inhibition % at indicated screening concentration: TAO2; for inhibition at 1 µM: screening concentration 1.0 μM; for inhibition at 0.1 µM: screening concentration 0.1 μM
T1 construct: screened for activity against several kinases in Jurkat cells; endogenous in cells; host or cells: Jurkat cell lysate
T1 sequence (Q9UL54 1-1235): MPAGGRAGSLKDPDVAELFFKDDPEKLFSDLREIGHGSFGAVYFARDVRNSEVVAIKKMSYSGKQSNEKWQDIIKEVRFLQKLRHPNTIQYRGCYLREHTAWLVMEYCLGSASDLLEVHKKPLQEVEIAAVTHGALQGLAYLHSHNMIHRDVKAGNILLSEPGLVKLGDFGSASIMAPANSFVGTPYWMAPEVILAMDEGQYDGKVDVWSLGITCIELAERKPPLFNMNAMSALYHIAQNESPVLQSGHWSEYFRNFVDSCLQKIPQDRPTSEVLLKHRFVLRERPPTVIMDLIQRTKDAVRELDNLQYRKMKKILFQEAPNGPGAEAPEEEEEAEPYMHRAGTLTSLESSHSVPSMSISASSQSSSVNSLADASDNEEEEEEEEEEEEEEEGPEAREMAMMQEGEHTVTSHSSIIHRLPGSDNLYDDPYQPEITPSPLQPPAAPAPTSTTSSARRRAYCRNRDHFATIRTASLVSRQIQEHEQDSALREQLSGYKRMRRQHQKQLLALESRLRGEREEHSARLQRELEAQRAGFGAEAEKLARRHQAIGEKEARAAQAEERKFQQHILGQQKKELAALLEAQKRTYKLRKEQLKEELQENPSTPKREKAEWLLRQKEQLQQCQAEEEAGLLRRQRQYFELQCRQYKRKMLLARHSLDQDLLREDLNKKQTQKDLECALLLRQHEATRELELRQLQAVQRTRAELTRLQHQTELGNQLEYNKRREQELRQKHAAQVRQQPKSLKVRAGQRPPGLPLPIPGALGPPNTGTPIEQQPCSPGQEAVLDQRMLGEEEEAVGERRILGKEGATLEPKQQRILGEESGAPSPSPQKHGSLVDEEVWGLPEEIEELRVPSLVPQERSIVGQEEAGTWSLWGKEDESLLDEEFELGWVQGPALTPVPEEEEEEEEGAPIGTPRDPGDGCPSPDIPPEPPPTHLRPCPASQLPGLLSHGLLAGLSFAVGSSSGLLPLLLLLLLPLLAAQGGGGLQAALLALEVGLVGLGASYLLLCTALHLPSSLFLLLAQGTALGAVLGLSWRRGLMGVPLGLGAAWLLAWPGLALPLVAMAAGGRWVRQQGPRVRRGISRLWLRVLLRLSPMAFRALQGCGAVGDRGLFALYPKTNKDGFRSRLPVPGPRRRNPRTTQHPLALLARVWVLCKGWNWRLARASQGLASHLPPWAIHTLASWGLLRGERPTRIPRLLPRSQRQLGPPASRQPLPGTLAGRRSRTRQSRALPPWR
Summary of the method: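 Jurkat lysate (50 mM HEPES pH 7.5, 150 mM NaCl, 0.1% Triton X-100, 20 mM MnCl2) pre-incubated 15 min with compound at room temperature, then labeled with 5 μM acyl phosphate ATP probe AX9989. Tryptic probe-labeled peptides streptavidin-captured and quantified by LC/MS; percent inhibition from decreased fragment intensity versus untreated.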

human PBMCs = test: Human PBMC TNF-α response to endotoxin (ELISA); format: cell-based; conditions: 0.1 μg/ml LPS 16 h, read-out: EC50 for the inhibition of the human PBMC TNF-α response to endotoxin, ave. ± S.D.
Summary of the method: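 PBMCs at 2e6 cells/ml in RPMI 1640 with 10% charcoal-dextran-treated FBS were pre-treated 1 h at 37 °C with compound (4-point 1:5 dilution from 10 μM). Stimulation with 0.1 μg/ml E. coli 0111:B4 LPS for 16 h; TNF-α measured by ELISA (A450) in 25-fold diluted supernatant.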

SMILES	inhibition at 1 µM (TAO2)	EC50 (human PBMCs)	inhibition at 0.1 µM (TAO2)
CCOc1cc(C(=O)N2CCC(N3CCN(C)CC3)CC2)ccc1Nc1cc2c(cn1)N(C)C(=O)c1ncccc1N2C [Compound 40]	≤ 35%	> 10 µM	–
CCOc1cc(C(=O)N(C)CCn2ccnc2)ccc1Nc1cc2c(cn1)N(C)C(=O)c1ccccc1N2C [Compound 30]	–	1.26 ± 0.17 µM	≤ 35%
CCOc1cc(C(=O)N2CCNC[C@@H]2C)ccc1Nc1cc2c(cn1)N(C)C(=O)c1ccccc1N2C [Compound 31]	–	1.25 µM	≤ 35%
CCOc1cc(C(=O)N2CCC(N3CCCC3)C2)ccc1Nc1cc2c(cn1)N(C)C(=O)c1occc1N2C (centres unmarked) [Compound 15]	–	0.49 ± 0.03 µM	≤ 35%
CCOc1cc(C(=O)N2CC[C@@H](N(C)C)C2)ccc1Nc1cc2c(cn1)N(C)C(=O)c1occc1N2C [Compound 25]	–	1.17 ± 0.07 µM	≤ 35%
CCOc1cc(C(=O)N(C)CCN2CCCC2)ccc1Nc1cc2c(cn1)N(C)C(=O)c1ccccc1N2C [Compound 28]	–	0.48 µM	≤ 35%
CCOc1cc(C(=O)N(C)CCN(CC)CC)ccc1Nc1cc2c(cn1)N(C)C(=O)c1ccccc1N2C [Compound 42]	≤ 35%	0.65 µM	–
C=CCN1CCN(C(=O)c2ccc(Nc3cc4c(cn3)N(C)C(=O)c3ccccc3N4C)c(OCC)c2)CC1 [Compound 21]	–	1.22 µM	≤ 35%
CCOc1cc(C(=O)NCCN2CCN(C)CC2)ccc1Nc1cc2c(cn1)N(C)C(=O)c1ccccc1N2C [Compound 44]	≤ 35%	0.59 µM	–
CCOc1cc(C(=O)N2CCN(C3CC3)CC2)ccc1Nc1cc2c(cn1)N(C)C(=O)c1ccccc1N2C [Compound 39]	–	1.77 µM	≤ 35%
CCOc1cc(C(=O)N2CC[C@H](O)C2)ccc1Nc1cc2c(cn1)N(C)C(=O)c1occc1N2C [Compound 17]	–	2.23 µM	≤ 35%
CCOc1cc(C(=O)N2CCC(NC)C2)ccc1Nc1cc2c(cn1)N(C)C(=O)c1occc1N2C (centres unmarked) [Compound 43]	–	1.48 µM	≤ 35%
CN1C(=O)c2ccccc2N(C)c2cc(N[C@H]3CC[C@H](NC4=NCCO4)CC3)ncc21 [Compound 45]	≤ 35%	1.58 µM	–
CCOc1cc(C(=O)N2CCN(CCO)CC2)ccc1Nc1cc2c(cn1)N(C)C(=O)c1ccccc1N2C [Compound 37]	–	0.96 µM	≤ 35%
CCOc1cc(C(=O)N2CCCCC2)ccc1Nc1cc2c(cn1)N(C)C(=O)c1ccccc1N2C [Compound 12]	≤ 35%	0.63 µM	–
CCOc1cc(C(=O)N2CC[C@@H](N3CCCC3)C2)ccc1Nc1cc2c(cn1)N(C)C(=O)c1ccccc1N2C [Compound 24]	–	0.91 µM	≤ 35%
